Experimental data: ChEMBL document CHEMBL6103613 (J Med Chem, 2025)
Converted amounts (≈) assume the structure as drawn. Positions of bridges follow the written chain, without caps; N, C: chain ends. Non-standard residues stand in square brackets, D forms with d. Residues, ends and D or L forms follow the SMILES beside them. *: point of attachment. X1 = CC[C@H](C)CCCCC(=O)*; dDab = NCC[C@@H](N)C(=O)O; Dab = NCC[C@H](N)C(=O)O

How the values were obtained:
Staphylococcus aureus [1] = assay: Antimicrobial activity against methicillin-resistant Staphylococcus aureus clinical isolate 4 assessed as inhibition of visible bacterial growth incubated for 18 hrs by CLSI based analysis; format: functional
Enterococcus gallinarum = assay: Antimicrobial activity against Enterococcus gallinarum ATCC 49573 assessed as inhibition of visible bacterial growth incubated for 18 hrs by CLSI based analysis; format: functional
Enterococcus faecalis = assay: Antimicrobial activity against Enterococcus faecalis ATCC 19433 assessed as inhibition of visible bacterial growth incubated for 18 hrs by CLSI based analysis; format: functional
[2] = tested on: Staphylococcus epidermidis; assay: Antimicrobial activity against Staphylococcus epidermidis ATCC 12228 assessed as inhibition of visible bacterial growth incubated for 18 hrs by CLSI based analysis; format: functional
Staphylococcus aureus [3] = assay: Antimicrobial activity against methicillin-resistant Staphylococcus aureus clinical isolate 2 assessed as inhibition of visible bacterial growth incubated for 18 hrs by CLSI based analysis; format: functional
Bacillus subtilis = assay: Antimicrobial activity against Bacillus subtilis ATCC 23875 assessed as inhibition of visible bacterial growth incubated for 18 hrs by CLSI based analysis; format: functional
Staphylococcus aureus [4] = assay: Antimicrobial activity against methicillin-resistant Staphylococcus aureus ATCC 43300 assessed as inhibition of visible bacterial growth incubated for 18 hrs by CLSI based analysis; format: functional
Staphylococcus aureus [5] = assay: Antimicrobial activity against methicillin-resistant Staphylococcus aureus clinical isolate 3 assessed as inhibition of visible bacterial growth incubated for 18 hrs by CLSI based analysis; format: functional
Enterococcus faecium = assay: Antimicrobial activity against vancomycin-resistant Enterococcus faecium assessed as inhibition of visible bacterial growth incubated for 18 hrs by CLSI based analysis; format: functional
Staphylococcus aureus [6] = assay: Antimicrobial activity against Staphylococcus aureus ATCC 25923 assessed as inhibition of visible bacterial growth incubated for 18 hrs by CLSI based analysis; format: functional
Escherichia coli = assay: Antimicrobial activity against Escherichia coli assessed as inhibition of visible bacterial growth incubated for 18 hrs by CLSI based analysis; format: functional
[7] = Therapeutic index, ratio of HC5 for hemolytic activity in mouse Red blood cell to MIC for antimicrobial activity against Staphylococcus aureus ATCC 25923 assessed as inhibition of visible bacterial growth; format: toxicity, cell-based, RBC; settings: red blood cells, read-out: TI
Candida albicans = assay: Antifungal activity against Candida albicans assessed as reduction in fungal growth incubated for 18 hrs by CLSI based analysis; format: functional
Staphylococcus aureus [8] = assay: Antimicrobial activity against Staphylococcus aureus assessed as inhibition of visible bacterial growth incubated for 18 hrs by CLSI based analysis; format: functional
[9] = Hemolytic activity against mouse Red blood cell incubated for 1 hr; format: toxicity, cell-based; settings: erythrocyte
[10] = Hemolytic activity against mouse Red blood cells at 100 microg/ml incubated for 1 hr relative to control; format: toxicity, cell-based, Erythrocyte; settings: at 100 µg/mL, read-out: Activity
Cell membrane [11] = assay: Disruption of cell membrane integrity in Staphylococcus aureus at 4 times of MIC incubated for 1 mins by Propidium iodide staining based analysis; format: subcellular
Cell membrane [12] = assay: Disruption of cell membrane integrity in Staphylococcus aureus at 4 times of MIC incubated for 30 mins by Propidium iodide staining based analysis; format: subcellular

| Structure (SMILES) | MIC (Staphylococcus aureus [1]) | MIC (Enterococcus gallinarum) | MIC (Enterococcus faecalis) | MIC [2] | MIC (Staphylococcus aureus [3]) | MIC (Bacillus subtilis) | MIC (Staphylococcus aureus [4]) | MIC (Staphylococcus aureus [5]) | MIC (Enterococcus faecium) | MIC (Staphylococcus aureus [6]) | MIC (Escherichia coli) | selectivity ratio [7] | MIC (Candida albicans) | MIC (Staphylococcus aureus [8]) | HC5 [9] | hemolysis at 1 h, 100 microg/ml [10] | Activity (Cell membrane [11]) | Activity (Cell membrane [12]) |
| --- | --- | --- | --- | --- | --- | --- | --- | --- | --- | --- | --- | --- | --- | --- | --- | --- | --- | --- |
| CC(C)C[C@H]1NC(=O)[C@H](Cc2c(C(c3ccccc3)(c3ccccc3)c3ccccc3)[nH]c3ccccc23)NC(=O)[C@@H](C(C)C)NC(=O)[C@@H]2CSC(N2)[C@H](C(C)C)NC(=O)[C@@H](C(C)C)NC(=O)[C@H](C(C)C)NC1=O | > 50 µg/mL | > 50 µg/mL | > 50 µg/mL | > 50 µg/mL | > 50 µg/mL | > 50 µg/mL | > 50 µg/mL | > 50 µg/mL | > 50 µg/mL | > 50 µg/mL | – | – | – | – | – | – | – | – |
| CC(C)C[C@H]1NC(=O)[C@H](Cc2c(C(c3ccccc3)(c3ccccc3)c3ccccc3)[nH]c3ccccc23)NC(=O)[C@@H](C(C)C)NC(=O)[C@@H]2CSC(N2)[C@H](C(C)C)NC(=O)[C@@H](C(C)C)NC(=O)[C@H](CCCCN)NC1=O | 6.25 µg/mL (≈ 5.93 µM) | 12.5 µg/mL (≈ 11.9 µM) | 12.5 µg/mL (≈ 11.9 µM) | 6.25 µg/mL (≈ 5.93 µM) | 6.25 µg/mL (≈ 5.93 µM) | 6.25 µg/mL (≈ 5.93 µM) | 6.25 µg/mL (≈ 5.93 µM) | 6.25 µg/mL (≈ 5.93 µM) | 12.5 µg/mL (≈ 11.9 µM) | 6.25 µg/mL (≈ 5.93 µM) | 3.13 µg/mL (≈ 2.97 µM) | 11 | 3.13 µg/mL (≈ 2.97 µM) | 3.13 µg/mL (≈ 2.97 µM) | 68.73 µg/mL | – | – | – |
| CC(C)C[C@H]1NC(=O)[C@H](Cc2c(C(c3ccccc3)c3ccccc3)[nH]c3ccccc23)NC(=O)[C@@H](CCCCN)NC(=O)[C@@H]2CSC(N2)[C@H](C(C)C)NC(=O)[C@@H](C(C)C)NC(=O)[C@H](C(C)C)NC1=O | 25 µg/mL (≈ 25.6 µM) | 50 µg/mL (≈ 51.1 µM) | 25 µg/mL (≈ 25.6 µM) | 25 µg/mL (≈ 25.6 µM) | 25 µg/mL (≈ 25.6 µM) | 25 µg/mL (≈ 25.6 µM) | 25 µg/mL (≈ 25.6 µM) | 25 µg/mL (≈ 25.6 µM) | 50 µg/mL (≈ 51.1 µM) | 25 µg/mL (≈ 25.6 µM) | 3.13 µg/mL (≈ 3.2 µM) | > 4 | 3.13 µg/mL (≈ 3.2 µM) | 3.13 µg/mL (≈ 3.2 µM) | > 100 µg/mL | – | – | – |
| CC(C)C[C@H]1NC(=O)[C@H](Cc2c(C(c3ccccc3)(c3ccccc3)c3ccccc3)[nH]c3ccccc23)NC(=O)[C@@H](C(C)C)NC(=O)[C@@H]2CSC(N2)[C@H](C(C)C)NC(=O)[C@@H](CCCCN)NC(=O)[C@H](C(C)C)NC1=O | 6.25 µg/mL (≈ 5.93 µM) | 6.25 µg/mL (≈ 5.93 µM) | 12.5 µg/mL (≈ 11.9 µM) | 6.25 µg/mL (≈ 5.93 µM) | 3.13 µg/mL (≈ 2.97 µM) | 6.25 µg/mL (≈ 5.93 µM) | 3.13 µg/mL (≈ 2.97 µM) | 6.25 µg/mL (≈ 5.93 µM) | 12.5 µg/mL (≈ 11.9 µM) | 3.13 µg/mL (≈ 2.97 µM) | 3.13 µg/mL (≈ 2.97 µM) | 14.1 | 3.13 µg/mL (≈ 2.97 µM) | 3.13 µg/mL (≈ 2.97 µM) | 44.04 µg/mL | 23% | – | – |
| CC(C)C[C@H]1NC(=O)[C@H](Cc2c(C(c3ccccc3)c3ccccc3)[nH]c3ccccc23)NC(=O)[C@@H](C(C)C)NC(=O)[C@@H]2CSC(N2)[C@H](C(C)C)NC(=O)[C@@H](C(C)C)NC(=O)[C@H](C(C)C)NC1=O | > 50 µg/mL | > 50 µg/mL | > 50 µg/mL | > 50 µg/mL | > 50 µg/mL | > 50 µg/mL | > 50 µg/mL | > 50 µg/mL | > 50 µg/mL | > 50 µg/mL | – | – | – | – | – | – | – | – |
| CC(C)CCCCC(=O)N[C@@H](CCN)C(=O)N[C@H](C(=O)N[C@@H](CCN)C(=O)N[C@H]1CCNC(=O)[C@H]([C@@H](C)O)NC(=O)[C@H](CCN)NC(=O)[C@H](CCN)NC(=O)[C@H](CC(C)C)NC(=O)[C@@H](Cc2ccccc2)NC(=O)[C@@H](CCN)NC1=O)[C@@H](C)O.CC[C@H](C)CCCCC(=O)N[C@@H](CCN)C(=O)N[C@H](C(=O)N[C@@H](CCN)C(=O)N[C@H]1CCNC(=O)[C@H]([C@@H](C)O)NC(=O)[C@H](CCN)NC(=O)[C@H](CCN)NC(=O)[C@H](CC(C)C)NC(=O)[C@@H](Cc2ccccc2)NC(=O)[C@@H](CCN)NC1=O)[C@@H](C)O (X1-[Dab]T[Dab][Dab][dDab][dF]L[Dab][Dab]T; lactam 4-C) | – | – | – | – | – | – | – | – | – | – | – | – | – | – | – | – | 5.54% | 38% |
